Experimental data published in publication PMC6879241 (Antimicrobial Agents and Chemotherapy, 2019).
Values after ≈ are worked out from the molar mass of the structure shown. Values joined by “and” are separate entries in the source; they are usually repeats but may differ in a detail not shown here. Equal values may be shown once. Read-outs that look alike come from different tables or passages of the source.

Columns and labels:
human Topo I = human Topo I (Homo sapiens, UniProt P11387); experiment: biochemical
P. aeruginosa ATCC 27853 = experiment: microbe, parasite or virus in culture; type: cell-based; details: Pseudomonas aeruginosa, ATCC27853
E. coli ATCC 25922 = experiment: microbe, parasite or virus in culture; type: cell-based; details: Escherichia coli, ATCC25922
B. pseudomallei = experiment: microbe, parasite or virus in culture; type: cell-based, Burkholderia pseudomallei; details: for MIC50 / MIC90: Burkholderia pseudomallei
F. tularensis = experiment: microbe, parasite or virus in culture; type: cell-based, Francisella tularensis
B. anthracis = experiment: microbe, parasite or virus in culture; type: cell-based, Bacillus anthracis
Y. pestis = experiment: microbe, parasite or virus in culture; type: cell-based, Yersinia pestis
B. mallei = experiment: microbe, parasite or virus in culture; type: cell-based, Burkholderia mallei; details: for MIC50 / MIC90: Burkholderia mallei
[1] = system: intracellular B. pseudomallei 1026b; details: cited from earlier work
[2] = system: B. pseudomallei strain 1026b; parameters: species or system BALB/c mice; details: mouse, in vivo
[3] = not told
[4] = target: Quinolone-resistant E. coli gyrase (Escherichia coli, UniProt P0AES4+P0AES6); type: biochemical; details: read-out: IC50, E. coli quinolone-resistant gyrase
S. aureus DNA gyrase = S. aureus DNA gyrase (Staphylococcus aureus, UniProt P0A0K8+P20831); experiment: biochemical
E. coli Topo IV = E. coli Topo IV (Escherichia coli, UniProt P0AFI2+P20083); experiment: biochemical
S. aureus Topo IV = S. aureus Topo IV (Staphylococcus aureus, UniProt P0C1S7+P0C1U9); experiment: biochemical
[5] = system: B. pseudomallei strain 1026b; type: cell-based, Burkholderia pseudomallei
[6] = system: B. pseudomallei strain 1026b; parameters: species or system BALB/c mice; details: mouse, in vivo; remark: listed apart in the source
[7] = system: B. pseudomallei 1026b-based efflux-proficient and -compromised strains; experiment: microbe, parasite or virus in culture; type: cell-based; details: Burkholderia pseudomallei, read-out: MIC under efflux by BpeEF-OprC
[8] = system: intracellular B. pseudomallei 1026b; experiment: microbe, parasite or virus in culture; type: cell-based, Burkholderia pseudomallei
E. coli DNA gyrase = E. coli DNA gyrase (Escherichia coli, UniProt P0AES4+P0AES6); experiment: biochemical

Chain of human Topo I (P11387 whole entry): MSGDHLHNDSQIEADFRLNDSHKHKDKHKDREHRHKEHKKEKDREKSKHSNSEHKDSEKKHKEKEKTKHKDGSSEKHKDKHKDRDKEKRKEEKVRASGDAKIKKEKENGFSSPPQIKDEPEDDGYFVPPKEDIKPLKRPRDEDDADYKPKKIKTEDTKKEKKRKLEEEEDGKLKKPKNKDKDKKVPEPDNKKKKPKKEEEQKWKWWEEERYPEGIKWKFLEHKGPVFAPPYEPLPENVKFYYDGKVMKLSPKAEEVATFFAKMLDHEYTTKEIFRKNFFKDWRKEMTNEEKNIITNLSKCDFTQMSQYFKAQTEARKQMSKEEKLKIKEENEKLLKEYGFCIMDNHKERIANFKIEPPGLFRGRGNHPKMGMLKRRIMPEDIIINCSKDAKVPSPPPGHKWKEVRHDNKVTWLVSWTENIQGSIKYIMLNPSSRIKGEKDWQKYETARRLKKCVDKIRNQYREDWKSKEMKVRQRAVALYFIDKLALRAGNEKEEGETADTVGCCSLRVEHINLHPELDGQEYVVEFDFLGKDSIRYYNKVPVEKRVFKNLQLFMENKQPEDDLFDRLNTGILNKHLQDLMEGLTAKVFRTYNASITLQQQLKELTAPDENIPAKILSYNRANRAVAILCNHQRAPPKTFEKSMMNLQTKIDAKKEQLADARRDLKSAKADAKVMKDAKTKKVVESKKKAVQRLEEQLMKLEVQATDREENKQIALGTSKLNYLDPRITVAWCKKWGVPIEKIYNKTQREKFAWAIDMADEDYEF
Chain of E. coli Topo IV (P0AFI2 whole entry): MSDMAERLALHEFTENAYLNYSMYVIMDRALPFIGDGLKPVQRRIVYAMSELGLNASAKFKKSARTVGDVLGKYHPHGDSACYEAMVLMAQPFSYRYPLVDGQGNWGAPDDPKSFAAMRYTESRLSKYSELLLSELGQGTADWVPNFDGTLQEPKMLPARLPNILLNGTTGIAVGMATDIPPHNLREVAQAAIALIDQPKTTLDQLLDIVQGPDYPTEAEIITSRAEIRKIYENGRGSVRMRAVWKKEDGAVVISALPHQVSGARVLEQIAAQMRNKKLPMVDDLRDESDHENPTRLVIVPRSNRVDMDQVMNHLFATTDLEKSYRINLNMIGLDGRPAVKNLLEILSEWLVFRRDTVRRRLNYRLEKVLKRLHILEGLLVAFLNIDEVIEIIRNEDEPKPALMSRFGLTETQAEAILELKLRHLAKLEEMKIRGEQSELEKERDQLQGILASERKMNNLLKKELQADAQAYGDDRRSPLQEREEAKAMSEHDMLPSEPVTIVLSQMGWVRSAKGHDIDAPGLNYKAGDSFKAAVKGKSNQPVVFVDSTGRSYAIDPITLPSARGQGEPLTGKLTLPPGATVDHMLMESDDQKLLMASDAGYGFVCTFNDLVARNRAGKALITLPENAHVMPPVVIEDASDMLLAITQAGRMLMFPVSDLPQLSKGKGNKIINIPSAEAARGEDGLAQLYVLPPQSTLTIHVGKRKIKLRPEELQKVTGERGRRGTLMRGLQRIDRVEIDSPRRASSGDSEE
Chain of E. coli Topo IV (P20083 whole entry): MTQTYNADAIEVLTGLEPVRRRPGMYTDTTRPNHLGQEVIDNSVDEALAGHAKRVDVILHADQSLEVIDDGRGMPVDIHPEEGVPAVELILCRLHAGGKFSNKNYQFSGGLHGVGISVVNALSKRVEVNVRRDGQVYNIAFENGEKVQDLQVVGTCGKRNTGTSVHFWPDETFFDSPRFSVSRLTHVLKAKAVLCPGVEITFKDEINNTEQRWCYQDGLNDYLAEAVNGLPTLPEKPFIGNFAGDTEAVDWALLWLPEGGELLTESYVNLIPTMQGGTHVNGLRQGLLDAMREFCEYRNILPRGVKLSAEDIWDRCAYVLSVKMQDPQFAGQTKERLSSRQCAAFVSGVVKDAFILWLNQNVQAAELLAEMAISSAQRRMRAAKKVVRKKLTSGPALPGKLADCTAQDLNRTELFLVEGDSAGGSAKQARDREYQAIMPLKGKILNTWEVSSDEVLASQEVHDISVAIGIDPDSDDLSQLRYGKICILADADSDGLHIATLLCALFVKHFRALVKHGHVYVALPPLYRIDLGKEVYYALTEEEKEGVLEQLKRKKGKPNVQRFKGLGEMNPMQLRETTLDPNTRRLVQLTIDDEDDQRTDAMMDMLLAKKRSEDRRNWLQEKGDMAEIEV

`O=C(O)c1cn(C2CC2)c2cc(N3CCNCC3)c(F)cc2c1=O` [Ciprofloxacin, ciprofloxacin] showed an IC50 (human Topo I) of over 100 µM, an MIC (P. aeruginosa ATCC 27853) of 0.25 µg/mL (≈ 0.754 µM) and an MIC (E. coli ATCC 25922) of at most 0.008 µg/mL.

In the case of `N#Cc1c(N2C[C@@H]3NCCO[C@H]3C2)c(F)cc2c(=O)c(C(=O)O)cn(C3CC3)c12` [Finafloxacin, finafloxacin, reference compound], the “MIC 50%” value (B. pseudomallei) is reported as 4 µg/mL (≈ 10 µM), the “MIC 90%” value (B. pseudomallei) is reported as 8 µg/mL (≈ 20.1 µM) and the “MIC 50%” value (F. tularensis) is reported as at most 4 ng/mL. For the same molecule, the “MIC 90%” value (F. tularensis) was 8 ng/mL (≈ 0.0201 µM), the MIC range (F. tularensis) was at most 4 to 120 ng/mL and the “MIC 50%” value (B. anthracis) was 0.06 µg/mL (≈ 0.151 µM). For the same molecule, the “MIC 90%” value (B. anthracis) was 0.12 µg/mL (≈ 0.301 µM), the MIC range (B. anthracis) was 0.03 to 0.12 µg/mL and the “MIC 50%” value (Y. pestis) was 0.06 µg/mL (≈ 0.151 µM). For the same molecule, the “MIC 90%” value (Y. pestis) was 0.12 µg/mL (≈ 0.301 µM), the MIC range (Y. pestis) was 15 to 250 ng/mL and the “MIC 50%” value (B. mallei) was 0.25 µg/mL (≈ 0.628 µM). For the same molecule, the “MIC 90%” value (B. mallei) was 2 µg/mL (≈ 5.02 µM) and the MIC range (B. mallei) was 0.015 to 2 µg/mL.

`C[C@@H](O)[C@H]1C(=O)N2C(C(=O)O)=C(S[C@@H]3CN[C@H](C(=O)N(C)C)C3)[C@H](C)[C@H]12` [Meropenem, meropenem] showed an MIC range (B. pseudomallei) of at most 0.06 to 4 µg/mL, an MIC50 (B. pseudomallei) of 0.5 µg/mL (≈ 1.3 µM) and an MIC90 (B. pseudomallei) of 1 µg/mL (≈ 2.61 µM).

For `CC(C)(O/N=C(\C(=O)N[C@@H]1C(=O)N2C(C(=O)[O-])=C(C[n+]3ccccc3)CS[C@H]12)c1csc(N)n1)C(=O)O` [Ceftazidime, ceftazidime], the MIC50 (B. pseudomallei) is given as 1 µg/mL (≈ 1.83 µM), the MIC90 (B. pseudomallei) is given as 64 µg/mL (≈ 117 µM) and the “effect on intracellular survival of B. pseudomallei in macrophages” value [1] is given as “no effect”. For the same molecule, the survival [2] was 100%, the MIC (P. aeruginosa ATCC 27853) was 4 µg/mL (≈ 7.32 µM) and the MIC (E. coli ATCC 25922) was 0.25 µg/mL (≈ 0.457 µM).

In the case of `Cc1c(-c2cc(F)c(N)cc2F)ccn2c(=O)c(C(=O)O)cc(C3CC3)c12` [GC-072], the IC50 (human Topo I) is reported as over 100 µM, the MIC range (B. pseudomallei) is reported as at most 0.008 to 1 µg/mL and the “share of strains with MICs higher than 0.5 μg/ml” value (B. pseudomallei) is reported as 7%. For the same molecule, the MIC50 (B. pseudomallei) was 0.12 µg/mL (≈ 0.324 µM), the MIC90 (B. pseudomallei) was 0.25 µg/mL (≈ 0.675 µM) and the permeability [3] was “good”. For the same molecule, the IC50 [4] was 1300 to 1500 nM, the IC50 (S. aureus DNA gyrase) was 2000 nM and the IC50 (E. coli Topo IV) was 4.22 to 8.45 µM. For the same molecule, the IC50 (S. aureus Topo IV) was 4 to 30 µM, the MIC range (F. tularensis) was at most 0.5 to 15 ng/mL and the MIC50 (F. tularensis; Francisella tularensis) was at most 0.5 ng/mL. The MIC90 (F. tularensis; Francisella tularensis) was at most 0.5 ng/mL, the MIC range (B. anthracis) was at most 0.0005 to 0.004 µg/mL and the MIC50 (B. anthracis; Bacillus anthracis) was 1 ng/mL (≈ 0.0027 µM). It also gave an MIC90 (B. anthracis; Bacillus anthracis) of 2 ng/mL (≈ 0.0054 µM), an MIC range (Y. pestis) of 2 to 30 ng/mL and an MIC50 (Y. pestis; Yersinia pestis) of 8 ng/mL (≈ 0.0216 µM). The MIC90 (Y. pestis; Yersinia pestis) was 0.015 µg/mL (≈ 0.0405 µM), the MIC (P. aeruginosa ATCC 27853) was 1 µg/mL (≈ 2.7 µM) and the MIC range (B. mallei) was at most 0.004 to 0.5 µg/mL. For the same molecule, the MIC50 (B. mallei) was 0.015 µg/mL (≈ 0.0405 µM), the MIC90 (B. mallei) was 0.12 µg/mL (≈ 0.324 µM) and the “MIC for B. pseudomallei 1026b (time-kill study)” value [5] was 0.125 µg/mL. For the same molecule, the “share of the full killing effect observed within 5 h” value [5] was “more than 75%”, the MIC (E. coli ATCC 25922) was at most 0.004 µg/mL and the “animals that survived to the end of the experiment” value [6] was “four”. The median survival time [6] was 4.5 days and 4.75 days and 5.63 days, the “overall survival rate of the treated groups” value [6] was 87% and the survival [6] was 90% and 80%. For the same molecule, the MIC [7] was 0.5 to 1 µg/mL (≈ 1.35 to 2.7 µM), the “viable intracellular bacteria 24 h after initiation of treatment” value [8] was “no viable bacteria detectable” and the MIC ([8]; Burkholderia pseudomallei, read-out: MIC for B. pseudomallei strain 1026b measured for the intracellular experiment) was 0.25 µg/mL (≈ 0.675 µM). For the same molecule, the IC50 (E. coli DNA gyrase) was 180 to 1500 nM.

Molecule `CC[C@H]1OC(=O)[C@H](C)[C@@H](O[C@H]2C[C@@](C)(OC)[C@@H](O)[C@H](C)O2)[C@H](C)[C@@H](O[C@@H]2O[C@H](C)C[C@H](N(C)C)[C@H]2O)[C@](C)(O)C[C@@H](C)CN(C)[C@H](C)[C@@H](O)[C@]1(C)O` [Azithromycin] has an MIC range (B. mallei) of 0.12 to 1 µg/mL, an MIC50 (B. mallei) of 0.5 µg/mL (≈ 0.668 µM) and an MIC90 (B. mallei) of 0.5 µg/mL (≈ 0.668 µM).

In the case of `C[C@H]1c2cccc(O)c2C(=O)C2=C(O)[C@]3(O)C(=O)C(C(N)=O)=C(O)[C@@H](N(C)C)[C@@H]3[C@@H](O)[C@@H]21` [Doxycycline, doxycycline], the MIC range (B. pseudomallei) is reported as at most 0.06 to 32 µg/mL, the MIC50 (B. pseudomallei) is reported as 0.5 µg/mL (≈ 1.13 µM) and the MIC90 (B. pseudomallei) is reported as 4 µg/mL (≈ 9 µM). For the same molecule, the MIC (P. aeruginosa ATCC 27853) was over 16 µg/mL and the MIC (E. coli ATCC 25922) was 1 µg/mL (≈ 2.25 µM).
